The values that follow come from patent US20230271142A1, “METHODS OF PREPARING SOLID PARTICULATE MATERIALS” (MICROPORE TECHNOLOGIES LIMITED, priority 2020, published 2023).

The nature of data set [1]: Crystal size distribution of prednisolone crystals from CXF by Jorin ViPA. The class given is physicochemical. The following applies: 10 μm pores. As to the method:
8 g of Prednisolone was dissolved in 200 ml of ethanol in a beaker at 55° C. to make up the organic phase. 0.5% PVA (Mowiol 23-88) in DI water was used as the aqueous phase.
The CXF was configured with a membrane with 10 μm pores, spaced 200 μm apart in a square grid. A 9.5 mm insert was used. The materials were pumped using gear pumps, calibrated so the aqueous continuous phase flow was […] and the organic disperse phase flow was 28 mL/min.
The aqueous continuous phase was pumped through the annulus at the center of the membrane. The organic disperse phase, held at 55° C., was pumped through the top port of the device, through the membrane pores and into the flow of continuous phase.
The resultant solution was collected in a 500 ml beaker and stirred with an overhead stirrer at 500 rpm for 10-15 minutes. The crystals were analyzed via microscopy and Jorin ViPA. The results are relayed in FIGS. 6 and 7 and Table 3.

Data set [2] in a line: Particle size distribution of atorvastatin particles produced via LDC (laser diffraction). It counts as physicochemical. As to the method:
0.6 g of Atorvastatin was dissolved in 10 ml methanol in a beaker at room temperature to make up the organic phase. 0.5% HPMC (Mn 10,000) in DI water was used as the aqueous phase. The LDC was configured with a membrane with 10 μm pores, spaced 200 μm apart in a square grid, in a ring. The stirrer speed was set at […] (1750 rpm), and the organic phase injection rate set at 10 ml/min. The line was primed with organic phase and the CP was poured into the stirred cell. Addition was started and ended when 3 ml of DP was injected. The solution was left to stir until precipitation was visible. The crystals were analyzed via microscopy and Laser Diffraction (Beckmann Coulter LS-230).

The mark [3] stands for this setting: volume distribution, ethanol solution 55° C. into 0.5% PVA water.
Setting [4] is: 10 μm pores, methanol solution into 0.5% HPMC water.

`C[C@]12C=CC(=O)C=C1CC[C@@H]1[C@@H]2[C@@H](O)C[C@@]2(C)[C@H]1CC[C@]2(O)C(=O)CO` [Prednisolone]: in data set [1], the Span amounted to 0.72 and the “Volume Mean” value is reported as 45.73 μm. In data set [1] (setting [3]), this molecule returned a D10 of 29.47 μm, a D50 of 43.76 μm and a D90 of 60.78 μm.
The molecule `CC(C)c1c(C(=O)Nc2ccccc2)c(-c2ccccc2)c(-c2ccc(F)cc2)n1CC[C@@H](O)C[C@@H](O)CC(=O)O` [Atorvastatin] displayed a Span in data set [2] of 1.66. Besides, the Volume Mean in data set [2] (10 μm pores) is reported as 10.24 μm. Moreover, in data set [2] (setting [4]), the D10 was found to be 4.38 μm, the D50 was 8.78 μm and the D90 worked out at 18.92 μm.
